Reference: patent US7812034B2, “Method of using protease inhibitors for the treatment of liposarcomas” (City of Hope, priority 2003, dated 2010)
Where two headings read alike, the source gives them in different places.

Tests used:
[1] = test system: advanced soft tissue sarcomas; conditions: patients; cited from earlier work
[2] = humans, cited from earlier work; for Cmax: recommended dose and regimen, read-out: maximum plasma concentration (Cmax)
[3] = cited from earlier work
[4] = test system: differentiated adipocytes; conditions: incubation for 48 hours; cited from earlier work
SW872 liposarcoma cells = assay: Clonogenic assay, SW872 liposarcoma cells; format: cell-based, human; conditions: for concentration that inhibits SW872 liposarcoma clonogenicity (colony growth): 4 hours treatment, 2000 cells plated, colonies scored at 7-10 days, FIG. 1
Protocol: The experimental conditions were intended to bracket these clinically relevant concentrations.
Two thousand treated cells were plated into 60 mm tissue culture plates in triplicate, and colonies (≧40 cells/colony) were scored at 7-10 days with the Eagle Eye II gel documentation system (Stratagene, La Jolla, Calif.). FIG. 1 summarizes the mean and standard deviation of the triplicate colony counts for each experimental condition. […] Ritonavir inhibits colony growth if administered in a concentration of at least 10 μM.
(§1) One thousand treated cells were plated in triplicate in this instance, and colonies were similarly scored.

S2 liposarcoma cell line = assay: Clonogenic assay, S2 high-grade liposarcoma cells; format: cell-based, human; conditions: 2.5, 10, 20 μM, 4 hours, FIG. 3
Protocol: A second high-grade liposarcoma cell line, S2 (a kind gift from Dr. Wei Wen, City of Hope Medical Center), was tested for protease inhibitor (PI) therapy for liposarcoma. The purpose of the experiment was to determine whether nelfinavir-mediated inhibition of liposarcoma clonogenicity could be reproduced in S2 cells. As with the SW872 experiment, S2 cells […], indinavir, ritonavir, and saquinavir. […] Colonies (≧40 cells/colony) were scored at 7-10 days with the Eagle Eye II gel documentation system (Stratagene, La Jolla, Calif.). FIG. 3 summarizes the mean and standard deviation of the triplicate colony counts for each experimental condition.

[5] = test system: human 293 embryonic kidney cells; assay: Clonogenic assay, 293 embryonic kidney cells; format: cell-based; conditions: increasing concentrations, 1000 cells plated, FIG. 2
Protocol: as §1

[6] = cited from earlier work; remark: listed apart in the source
SREBP-1 [7] = assay: SREBP-1 protein levels in SW872 cells; format: cell-based, human
Protocol: In order to influence transcription, the NH2-terminal domain of SREBP-1 must be proteolytically released from the membrane to enter the nucleus (68 kDa). […] Alterations in both SREBP-1 and PPARγ levels have been proposed as the mechanisms underlying of HIV protease-induced lipodystrophy (15-18, 21). To determine whether a similar mechanism is responsible for the observation of nelfinavir-mediated inhibition of liposarcoma clonogenicity, whole cell extracts are prepared from control and nelfinavir-treated SW872 cells for SDS-PAGE electrophoresis. After transfer to polyvinylidene fluoride membranes, the extracts are probed with rabbit polyclonal antibodies to SREBP-1 and PPARγ (Santa Cruz Biotechnology, Santa Cruz, Calif.). Protein detection is performed by ECL using commercially available reagents as per the manufacturer's instructions (Applied Biosystems, Foster City, Calif.). To control for protein-loading, the membranes are stripped and reprobed with antibody to β-actin (Santa Cruz Biotechnology).

pre-adipocytes = conditions: incubation for 48 hours; cited from earlier work
SREBP-1 [8] = assay: Western blot of SREBP-1 protein in S2 cells; format: cell-based, human; conditions: 10 μM, FIG. 4
Excerpt: In order to influence transcription, the NH2-terminal domain of SREBP-1 must be proteolytically released from the membrane to enter the nucleus (68 kDa).

[9] = test system: human HT1080 fibrosarcoma cells; assay: Clonogenic assay, HT1080 fibrosarcoma cells; format: cell-based; conditions: increasing concentrations, 1000 cells plated, FIG. 2
Protocol: as §1

[10] = test system: intermediate to high-grade liposarcoma; conditions: patients with liposarcoma; cited from earlier work

Compound: COc1cccc2c1C(=O)c1c(O)c3c(c(O)c1C2=O)C[C@@](O)(C(=O)CO)C[C@@H]3O[C@H]1C[C@H](N)[C@H](O)[C@H](C)O1 [doxorubicin]
- response rate [1]: about 25%

Compound: CC(C)(C)NC(=O)[C@@H]1CN(Cc2cccnc2)CCN1C[C@@H](O)C[C@@H](Cc1ccccc1)C(=O)N[C@H]1c2ccccc2C[C@H]1O [indinavir]
- Cmax [2]: 12.5 µM

Compound: Cc1c(O)cccc1C(=O)N[C@@H](CSc1ccccc1)[C@H](O)CN1C[C@H]2CCCC[C@H]2C[C@H]1C(=O)NC(C)(C)C [nelfinavir]
- water solubility [3]: water-soluble
- apoptosis in differentiated adipocytes [4]: induced apoptosis
- concentration that inhibits SW872 liposarcoma clonogenicity (colony growth) (SW872 liposarcoma cells): ≥ 2.5 µM
- colonies in the SW872 cell line (SW872 liposarcoma cells; nelfinavir 20 μM, 1000 cells plated, FIG. 2): marked reduction in colonies
- clonogenicity in the S2 liposarcoma cell line (S2 liposarcoma cell line): inhibits clonogenicity
- embryonic kidney (293) clonogenicity [5]: minimally affecting
- oral bioavailability ([6]; fed rats): 43%
- plasma Cmax ([6]; rat, daily gavage 50 mg/kg in 5% dextrose or propylene glycol-water): 1340 to 1650 ng/mL
- Cmax ([6]; rat, daily gavage 50 mg/kg in 5% dextrose or propylene glycol-water, read-out: plasma Cmax): 2.33 to 2.87 µM
- time plasma levels were maintained after dosing ([6]; rat, oral 50 mg/kg): up to 7 hours
- oral bioavailability ([2]; administered with food): 70-80%
- Cmax [2]: 6.97 µM
- expression of SREBP-1 (SREBP-1 [7]): upregulates expression of SREBP-1
- apoptosis in pre-adipocytes (pre-adipocytes): not in pre-adipocytes
- SREBP-1 protein (nuclear active and precursor forms) (SREBP-1 [8]): upregulated in a time-dependent fashion
- fibrosarcoma (HT1080) clonogenicity [9]: minimally affecting

Compound: CC(C)c1nc(CN(C)C(=O)N[C@H](C(=O)N[C@@H](Cc2ccccc2)C[C@H](O)[C@H](Cc2ccccc2)NC(=O)OCc2cncs2)C(C)C)cs1 [ritonavir]
- apoptosis in differentiated adipocytes [4]: induced apoptosis
- concentration that inhibits SW872 liposarcoma clonogenicity (colony growth) (SW872 liposarcoma cells): at least 10 μM
- Cmax [2]: 15.5 µM
- apoptosis in pre-adipocytes (pre-adipocytes): not in pre-adipocytes

Compound: CC(C)(C)NC(=O)[C@@H]1C[C@@H]2CCCC[C@@H]2CN1C[C@@H](O)[C@H](Cc1ccccc1)NC(=O)[C@H](CC(N)=O)NC(=O)c1ccc2ccccc2n1 [saquinavir]
- apoptosis in differentiated adipocytes [4]: induced apoptosis
- Cmax [2]: 3.67 µM
- apoptosis in pre-adipocytes (pre-adipocytes): not in pre-adipocytes

Compound: Cc1c(C)c2c(c(C)c1O)CCC(C)(COc1ccc(CC3SC(=O)NC3=O)cc1)O2 (centres unmarked) [troglitazone]
- toxicity of therapy [10]: negligible
